The supplement of paper PMC5908809

Key:
[1] = test system: normal NK cells expanded with K562-aAPC; assay: percent inhibition of viability; higher = more inhibition; settings: 72 h, IL-2 2.5 ng/mL
Description: (§1)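 Drug sensitivity and resistance testing on K562-aAPC-expanded normal NK cells: 5 concentrations (10-fold steps over a 10,000-fold range), 72 h at 37 °C, viability by CellTiter-Glo normalised to DMSO and benzethonium chloride controls; DSS from the fitted curve.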

DERL-7 (IL-2 2.5 ng/mL) [2] = assay: as above; settings: 72 h
IMC-1 (IL-2 20 ng/mL) [3] = assay: as above; settings: 72 h
KAI3 (IL-2 2.5 ng/mL) [4] = assay: as above; settings: 72 h
KHYG-1 (IL-2 2.5 ng/mL) [5] = assay: as above; settings: 72 h
NK-92 (IL-2 2.5 ng/mL) [6] = assay: as above; settings: 72 h
NK-YS (IL-2 2.5 ng/mL) [7] = assay: as above; settings: 72 h
NKL (IL-2 2.5 ng/mL) [8] = assay: as above; settings: 72 h
SNK-6 (IL-2 2.5 ng/mL) [9] = assay: as above; settings: 72 h
YT (IL-2 2.5 ng/mL) [10] = assay: as above; settings: 72 h
[11] = test system: normal primary NK cells, pool 1 (3 donors) (IL-2 2.5 ng/mL); assay: as above; settings: 72 h
[12] = test system: normal primary NK cells, pool 1 (3 donors), resting (IL-2 0 ng/mL); assay: as above; settings: 72 h
[13] = test system: normal primary NK cells, pool 2 (3 donors) (IL-2 2.5 ng/mL); assay: as above; settings: 72 h
[14] = test system: normal primary NK cells, pool 3 (3 donors) (IL-2 2.5 ng/mL); assay: as above; settings: 72 h
[15] = test system: normal NK cells expanded with K562-aAPC; assay: drug sensitivity score (DSS) (DSS units); higher = more sensitive; extreme values may be limits of the assay; settings: 72 h; IL-2 2.5 ng/mL
Description: as §1

DERL-7 (IL-2 2.5 ng/mL) [16] = assay: as above; settings: 72 h
IMC-1 (IL-2 20 ng/mL) [17] = assay: as above; settings: 72 h
KAI3 (IL-2 2.5 ng/mL) [18] = assay: as above; settings: 72 h
KHYG-1 (IL-2 2.5 ng/mL) [19] = assay: as above; settings: 72 h
NK-92 (IL-2 2.5 ng/mL) [20] = assay: as above; settings: 72 h
NK-YS (IL-2 2.5 ng/mL) [21] = assay: as above; settings: 72 h
NKL (IL-2 2.5 ng/mL) [22] = assay: as above; settings: 72 h
SNK-6 (IL-2 2.5 ng/mL) [23] = assay: as above; settings: 72 h
YT (IL-2 2.5 ng/mL) [24] = assay: as above; settings: 72 h
[25] = test system: normal primary NK cells, pool 1 (3 donors) (IL-2 2.5 ng/mL); assay: as above; settings: 72 h
[26] = test system: normal primary NK cells, pool 1 (3 donors), resting (IL-2 0 ng/mL); assay: as above; settings: 72 h
[27] = test system: normal primary NK cells, pool 2 (3 donors) (IL-2 2.5 ng/mL); assay: as above; settings: 72 h
[28] = test system: normal primary NK cells, pool 3 (3 donors) (IL-2 2.5 ng/mL); assay: as above; settings: 72 h

CNNCc1ccc(C(=O)NC(C)C)cc1 [Procarbazine] (max concentration tested 10000 nM)
percent inhibition of viability [%]
Settings | 1 nM | 10 nM | 100 nM | 1000 nM | 10000 nM
DERL-7 (IL-2 2.5 ng/mL) [2] | -5.96 | -2.97 | -1.35 | -4.02 | -1.33
IMC-1 (IL-2 20 ng/mL) [3] | -5.39 | -4.18 | -3.85 | -5.41 | -5.74
KAI3 (IL-2 2.5 ng/mL) [4] | -11.1 | -15.3 | -9.69 | -2.54 | -7.53
KHYG-1 (IL-2 2.5 ng/mL) [5] | -6.92 | -2.1 | -5.13 | -6.74 | -9.22
NK-92 (IL-2 2.5 ng/mL) [6] | -19 | -5.13 | -2.68 | -0.23 | -12.9
NK-YS (IL-2 2.5 ng/mL) [7] | -8.8 | -5.02 | -3.78 | -7.11 | -5.77
NKL (IL-2 2.5 ng/mL) [8] | -15.8 | -21.9 | -20.6 | -22.9 | -16.7
SNK-6 (IL-2 2.5 ng/mL) [9] | -3.98 | 12.4 | 2.31 | 3.29 | -21.5
YT (IL-2 2.5 ng/mL) [10] | -8.77 | -3.75 | -6.96 | -5.83 | -8.88
[1] | -2.09 | -5.44 | -0.68 | -4.82 | -4.8
[11] | -3.19 | -6.37 | -6.53 | -1.7 | -5.09
[12] | -10.9 | -14.4 | -17.2 | 1.81 | -7.55
[13] | -13.7 | -3.7 | -4.8 | -10 | -2.4
[14] | -11.8 | -5.14 | -5.98 | -4.43 | -4

Settings | drug sensitivity score
DERL-7 (IL-2 2.5 ng/mL) [16] | 0
IMC-1 (IL-2 20 ng/mL) [17] | 0
KAI3 (IL-2 2.5 ng/mL) [18] | 0
KHYG-1 (IL-2 2.5 ng/mL) [19] | 0
NK-92 (IL-2 2.5 ng/mL) [20] | 0
NK-YS (IL-2 2.5 ng/mL) [21] | 0
NKL (IL-2 2.5 ng/mL) [22] | 0
SNK-6 (IL-2 2.5 ng/mL) [23] | 0
YT (IL-2 2.5 ng/mL) [24] | 0
[15] | 0
[25] | 0
[26] | 0
[27] | 0
[28] | 0
